Test results published in patent US20200368315A1, “ANTIMICROBIAL PEPTIDES AND ADMIXTURES THEREOF SHOWING ANTIMICROBIAL ACTIVITY AGAINST GRAM-NEGATIVE PATHOGENS” (priority 2017, published 2020).
≈ marks a conversion by molar mass, not a printed value. Like-named read-outs stand apart in the source and are kept apart here. Non-standard residues stand in square brackets, D forms with d. Residues, ends and D or L forms follow the SMILES beside them. No end group written: not given here.

What was measured:
[1] = tested on: indicator strains; settings: indicator strain not given; cited from earlier work
[2] = cited from earlier work
[3] = tested on: P. aeruginosa LMG 6395; experiment: microbe, parasite or virus in culture; type: cell-based, Pseudomonas aeruginosa
Procedure: (§1) Escherichia coli, Klebsiella pneumoniae, Pseudomonas aeruginosa, Acinetobacter baumannii, Enterobacter aerogenes were grown in Luria-Bertani (LB) broth shaken (200 rpm) or on LB agar at 37° C. […] MICs tests were performed in duplicate by a liquid growth inhibition microdilution assays in sterilized polypropylene microtiter plates according to Wiegand and […] [27]. […] The suspension was diluted in a ratio of 1:100 using Mueller Hinton Broth (MHB) and the final inoculum is 5*10^5 CFU/mL. […] The antimicrobials were diluted serially by 1/2 one by one and 50 uL diluted bacterial suspension were added to each well to make the final volume to be 100 uL. Growth control was accomplished by remove 10 uL from well 11 and dilute 1000 times to plate 1/10 suspension on the solid medium. […] The number of colonies on the control agar plate should be around 50 to ensure the concentration of the inoculum and the effectiveness of the experiment. The lowest concentration of the antimicrobials that inhibits visible growth of the indicator is identified as MIC.

[4] = tested on: E. aerogenes LMG 02094; experiment: microbe, parasite or virus in culture; type: cell-based, Enterobacter aerogenes
Procedure: as §1

[5] = tested on: A. baumannii LMG01041; experiment: microbe, parasite or virus in culture; type: cell-based, Acinetobacter baumannii
Procedure: as §1

[6] = tested on: E. coli LMG15862; experiment: microbe, parasite or virus in culture; type: cell-based, Escherichia coli; settings: for MICb (GNP concentration when used alone): L-form GNP, Table 6
Procedure: as §1

[7] = tested on: Gram-negative pathogens; type: cell-based; settings: L-form GNPs alone; five Gram-negative pathogens
Procedure: as §1

[8] = tested on: K. pneumoniae LMG20218; experiment: microbe, parasite or virus in culture; type: cell-based, Klebsiella pneumoniae
Procedure: as §1

## CN[C@H](CC(C)C)C(=O)N[C@H]1C(=O)N[C@@H](CC(N)=O)C(=O)N[C@H]2C(=O)N[C@H]3C(=O)N[C@H](C(=O)N[C@H](C(=O)O)c4cc(O)cc(O)c4-c4cc3ccc4O)[C@H](O)c3ccc(c(Cl)c3)Oc3cc2cc(c3O[C@@H]2O[C@H](CO)[C@@H](O)[C@H](O)[C@H]2O[C@H]2C[C@](C)(NCc3ccc(-c4ccc(Cl)cc4)cc3)[C@H](O)[C@H](C)O2)Oc2ccc(cc2Cl)[C@H]1O [Compound 1, Chlorobiphenyl Vancomycin]
[1]
  Biological activity (relative to the wild type): Increased (Increased activity, >120% compared with the activity of vancomycin)

## M21V (ITSISLCTPGCKTGALMGCNVKTATCHCSIHVSK; cysteine pairing not given here; also: lantibiotic nisin-A; UniProt P13068 24-57, looked up, variant M21V)
[2]; gene nisA (nisin A mutants)
  Biological activity (relative to the wild type): Increased (Increased activity, >120% compared to the activity of wild type nisin A/Z)

## Chlorobiphenyl Des-methyl vancomycin [Compound 8]
[1]
  Biological activity (relative to the wild type): Increased (Increased activity, >120% compared with the activity of vancomycin)

## N20V (ITSISLCTPGCKTGALMGCVMKTATCHCSIHVSK; not fully specified; cysteine pairing not given here; also: lantibiotic nisin-A; UniProt P13068 24-57, looked up, variant N20V)
[2]; gene nisZ (nisin Z mutants)
  Biological activity (relative to the wild type): Increased (Increased activity, >120% compared to the activity of wild type nisin A/Z)

## RIWVIWRR-NH2 [GNP-5]
[3]; LMG 6395
  MICb (MIC of GNP alone): 3 µM
[4]; LMG 02094
  MICb (MIC of GNP alone): 5 µM
[5]; LMG01041
  MICb (MIC of GNP alone): 2 µM
[6]; E. coli LMG15862
  MICb (GNP concentration when used alone): 3 µM
[7]
  Activity ranking amongst all the GNPs: most potent
[8]; LMG20218
  MICb (MIC of GNP alone): 6 µM

## K12V (ITSISLCTPGCVTGALMGCNMKTATCHCSIHVSK; cysteine pairing not given here; also: lantibiotic nisin-A; UniProt P13068 24-57, looked up, variant K12V)
[2]; gene nisA (nisin A mutants)
  Biological activity (relative to the wild type): Increased (Increased activity, >120% compared to the activity of wild type nisin A/Z)

## K12S (ITSISLCTPGCSTGALMGCNMKTATCHCSIHVSK; cysteine pairing not given here; also: lantibiotic nisin-A; UniProt P13068 24-57, looked up, variant K12S)
[2]; gene nisA (nisin A mutants)
  Biological activity (relative to the wild type): Increased (Increased activity, >120% compared to the activity of wild type nisin A/Z)

## CCCCCCCCCCNCCN[C@@]1(C)C[C@H](O[C@H]2[C@H](Oc3c4cc5cc3Oc3ccc(cc3Cl)[C@@H](O)[C@@H](NC(=O)[C@@H](CC(C)C)NC)C(=O)N[C@@H](CC(N)=O)C(=O)N[C@H]5C(=O)N[C@H]3C(=O)N[C@H](C(=O)N[C@H](C(=O)O)c5cc(O)c(CNCP(=O)(O)O)c(O)c5-c5cc3ccc5O)[C@H](O)c3ccc(c(Cl)c3)O4)O[C@H](CO)[C@@H](O)[C@@H]2O)O[C@@H](C)[C@H]1O [Telavancin]
[1]
  Biological activity (relative to the wild type): Increased (Increased activity, >120% compared with the activity of vancomycin)

## CC[C@@H](C)[C@@H](NC(=O)CN)C(=O)NCC(=O)N[C@H](CCCCN)C(=O)N[C@H](Cc1c[nH]cn1)C(=O)N[C@@H](C(=O)NCC(=O)N[C@H](CCCCN)C(=O)N[C@H](C)C(=O)N[C@H](CC(C)C)C(=O)N[C@H](CCCCN)C(=O)NCC(=O)N[C@H](CC(C)C)C(=O)N[C@H](CCCCN)C(=O)NCC(=O)N[C@H](CC(C)C)C(=O)N[C@H](CC(C)C)C(=O)N[C@H](CCCCN)C(=O)NCC(=O)N[C@H](CC(C)C)C(=O)NCC(=O)N[C@H](CCC(=O)O)C(=O)N[C@H](CS)C(=O)O)C(C)C [GNP-D7] (H-G[dI]G[dK][dH][dV]G[dK][dA][dL][dK]G[dL][dK]G[dL][dL][dK]G[dL]G[dE][dC]-OH; N-terminus and C-terminus assumed)
[3]; D form GNP, P. aeruginosa LMG 6395, Table 9
  MICb (MIC of GNP alone): 4 µM
[3]; LMG 6395
  MIC value: 4 µM (≈ 9.11 µg/mL)
[4]; D form GNP, E. aerogenes LMG 02094, Table 9
  MICb (MIC of GNP alone): 4 µM
[4]; LMG 02094
  MIC value: 4 µM (≈ 9.11 µg/mL)
[5]; D form GNP, A. baumannii LMG01041, Table 9
  MICb (MIC of GNP alone): 2 µM
[5]; LMG01041
  MIC value: 2 µM (≈ 4.55 µg/mL)
[6]; D form GNP, E. coli LMG15862, Table 9
  MICb (MIC of GNP alone): 2 µM
[6]; LMG15862
  MIC value: 2 µM (≈ 4.55 µg/mL)
[8]; D form GNP, K. pneumoniae LMG20218, Table 9
  MICb (MIC of GNP alone): 4 µM
[8]; LMG20218
  MIC value: 4 µM (≈ 9.11 µg/mL)

## N20P (ITSISLCTPGCKTGALMGCPMKTATCHCSIHVSK; not fully specified; cysteine pairing not given here; also: lantibiotic nisin-A; UniProt P13068 24-57, looked up, variant N20P)
[2]; gene nisA (nisin A mutants)
  Biological activity (relative to the wild type): Increased (Increased activity, >120% compared to the activity of wild type nisin A/Z)

## K22S (ITSISLCTPGCKTGALMGCNMSTATCHCSIHVSK; cysteine pairing not given here; also: lantibiotic nisin-A; UniProt P13068 24-57, looked up, variant K22S)
[2]; gene nisA (nisin A mutants)
  Biological activity (relative to the wild type): Increased (Increased activity, >120% compared to the activity of wild type nisin A/Z)

## K12T (ITSISLCTPGCTTGALMGCNMKTATCHCSIHVSK; cysteine pairing not given here; also: lantibiotic nisin-A; UniProt P13068 24-57, looked up, variant K12T)
[2]; gene nisA (nisin A mutants)
  Biological activity (relative to the wild type): Increased (Increased activity, >120% compared to the activity of wild type nisin A/Z)

## GNNRPVYIPQPRPPHPRL [GNP-1]
[3]; LMG 6395
  MICb (MIC of GNP alone): >64 µM
[4]; LMG 02094
  MICb (MIC of GNP alone): 8 µM
[5]; LMG01041
  MICb (MIC of GNP alone): >64 µM
[6]; E. coli LMG15862
  MICb (GNP concentration when used alone): 0.5 µM
[8]; LMG20218
  MICb (MIC of GNP alone): 5 µM

## Teicoplanin [2a]
[1]
  Biological activity (relative to the wild type): Increased (Increased activity, >120% compared with the activity of vancomycin)

## KRIVQRIKKWLR-NH2 [GNP-9]
[3]; LMG 6395
  MICb (MIC of GNP alone): 16 µM
[4]; LMG 02094
  MICb (MIC of GNP alone): >32 µM
[5]; LMG01041
  MICb (MIC of GNP alone): 16 µM
[6]; E. coli LMG15862
  MICb (GNP concentration when used alone): 4 µM
[8]; LMG20218
  MICb (MIC of GNP alone): 64 µM
